Results reported in US12509444B2, “Compounds and methods for CD73 modulation and indications therefor” (Plexxikon Inc., priority 2019, dated 2025).

What was measured:
[1] = molecular target: T1, Human CD73 (amino acid residues 27-549) (Homo sapiens, UniProt P21589); experiment: CD73 enzymatic assay (luciferase-based indirect assay, CellTiter-Glo); type: biochemical; details: 0.4 nM CD73, 150 μM AMP, 1 hour at room temperature
T1 construct: Human CD73 (amino acid residues 27-549); His tag (N); made in house; host or cells: E. coli
T1 sequence (P21589 27-549): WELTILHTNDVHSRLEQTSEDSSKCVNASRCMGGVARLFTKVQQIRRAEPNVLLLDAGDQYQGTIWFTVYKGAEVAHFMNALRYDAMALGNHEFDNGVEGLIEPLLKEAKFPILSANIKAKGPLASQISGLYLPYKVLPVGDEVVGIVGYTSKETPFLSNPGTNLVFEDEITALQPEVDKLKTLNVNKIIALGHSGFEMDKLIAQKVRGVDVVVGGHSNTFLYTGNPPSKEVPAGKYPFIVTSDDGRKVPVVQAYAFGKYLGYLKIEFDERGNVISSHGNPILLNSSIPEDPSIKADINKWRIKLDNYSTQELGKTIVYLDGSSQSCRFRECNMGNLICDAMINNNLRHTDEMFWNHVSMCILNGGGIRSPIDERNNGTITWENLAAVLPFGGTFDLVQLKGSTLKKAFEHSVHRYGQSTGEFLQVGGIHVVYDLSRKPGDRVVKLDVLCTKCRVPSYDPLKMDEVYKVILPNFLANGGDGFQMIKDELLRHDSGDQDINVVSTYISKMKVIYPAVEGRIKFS
Summary of the method: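 His-tagged human CD73 (27-549) from E. coli, 0.4 nM, with 150 μM AMP in 50 mM HEPES pH 7.4, 0.01% Tween 20; 1 h at room temperature. AMP remaining read by CellTiter-Glo 2.0 luminescence with 1 μM final ATP after 30 min. IC50 from nonlinear regression of % inhibition.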

human CD73 = molecular target: T2, human CD73 (Homo sapiens, UniProt P21589); experiment: Inhibitor activity against CD73 in cell based assay (CD73 expressing CHO-K1 cells); details: CHO-K1 cells expressing human CD73, 150 μM AMP, 4 hours of incubation; read-out: CHO-K1 CELL VARIANT: CD73 IC50
T2 construct: expressed in transfected cells
T2 sequence (P21589 27-549): T1 sequence (P21589 27-549)
Summary of the method: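 Stably transfected CHO-K1 cells expressing human CD73 (1×10^4/well) incubated 4 h with compound (8-point 1:3 titration, top 10 μM final, 0.2% DMSO) and 150 μM AMP. Residual AMP in supernatant measured by CellTiter-Glo luminescence with 1 μM ATP after 30 min at room temperature; IC50 by nonlinear regression of percent inhibition vs high/low controls.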

| IC50 [1] [µM] | IC50 (human CD73) [µM] | SMILES |
| --- | --- | --- |
| 0.001 to 10 | 0.001 to 10 | C[C@@H]1CCCC[C@H]1NC(=O)O[C@@H]1CCN(c2cn[nH]c(=O)c2Cl)C1 [P-0335, (R)-1-(5-chloro-6-oxo-1,6-dihydropyridazin-4-yl)pyrrolidin-3-yl ((1R,2R)-2-methylcyclohexyl)carbamate] |
| 0.001 to 10 | 10 to 100 | C[C@@H]1C[C@@H](OC(=O)NC2CCC(F)(F)CC2)CN1c1cn[nH]c(=O)c1Cl [P-0337, (3R,5R)-1-(5-chloro-6-oxo-1,6-dihydropyridazin-4-yl)-5-methylpyrrolidin-3-yl (4,4-difluorocyclohexyl)carbamate] |
| 0.001 to 10 | 10 to 100 | CS(=O)(=O)N1CC[C@H](NC(=O)O[C@@H]2CCN(c3cn[nH]c(=O)c3Cl)C2)C1 [P-0341, (R)-1-(5-chloro-6-oxo-1,6-dihydropyridazin-4-yl)pyrrolidin-3-yl ((S)-1-(methylsulfonyl)pyrrolidin-3-yl)carbamate] |
| 0.001 to 10 | 0.001 to 10 | O=C(Nc1ccc(C(F)(F)F)cc1)N[C@H]1CC[C@H](NC(=O)O[C@@H]2CCN(c3cn[nH]c(=O)c3Cl)C2)CC1 [P-0345, (R)-1-(5-chloro-6-oxo-1,6-dihydropyridazin-4-yl)pyrrolidin-3-yl ((1r,4R)-4-(3-(4-(trifluoromethyl)phenyl)ureido)cyclohexyl)carbamate] |
| 0.001 to 10 | 0.001 to 10 | O=C(Nc1cccc(C(=O)O)c1)N[C@H]1CC[C@H](NC(=O)O[C@@H]2CCN(c3cn[nH]c(=O)c3Cl)C2)CC1 [P-0346, 3-(3-((1R,4r)-4-(((((R)-1-(5-chloro-6-oxo-1,6-dihydropyridazin-4-yl)pyrrolidin-3-yl)oxy)carbonyl)amino)cyclohexyl)ureido)benzoic acid] |
| 0.001 to 10 | 0.001 to 10 | O=C(Nc1ccc(C(=O)O)cc1)N[C@H]1CC[C@H](NC(=O)O[C@@H]2CCN(c3cn[nH]c(=O)c3Cl)C2)CC1 [P-0347, 4-(3-((1R,4r)-4-(((((R)-1-(5-chloro-6-oxo-1,6-dihydropyridazin-4-yl)pyrrolidin-3-yl)oxy)carbonyl)amino)cyclohexyl)ureido)benzoic acid] |
| 0.001 to 10 | 0.001 to 10 | O=C(NC12CCC(CC1)C2)O[C@@H]1CCN(c2cn[nH]c(=O)c2Cl)C1 [P-0349, (R)-1-(5-chloro-6-oxo-1,6-dihydropyridazin-4-yl)pyrrolidin-3-yl bicyclo[2.2.1]heptan-1-ylcarbamate] |
| 0.001 to 10 | 0.001 to 10 | O=C(N[C@@H]1CCN(C(=O)NC2CCCCC2)C1)O[C@@H]1CCN(c2cn[nH]c(=O)c2Cl)C1 [P-0354, (R)-1-(5-chloro-6-oxo-1,6-dihydropyridazin-4-yl)pyrrolidin-3-yl ((R)-1-(cyclohexylcarbamoyl)pyrrolidin-3-yl)carbamate] |
| 0.001 to 10 | 0.001 to 10 | CS(=O)(=O)N1CC[C@@H](NC(=O)O[C@@H]2CCN(c3cn[nH]c(=O)c3Cl)C2)C1 [P-0355, (R)-1-(5-chloro-6-oxo-1,6-dihydropyridazin-4-yl)pyrrolidin-3-yl ((R)-1-(methylsulfonyl)pyrrolidin-3-yl)carbamate] |
| 0.001 to 10 | 0.001 to 10 | CC1(NC(=O)c2ccccc2)CCC(NC(=O)O[C@@H]2CCN(c3cn[nH]c(=O)c3Cl)C2)CC1 (stereo partly drawn) [P-0357, (R)-1-(5-chloro-6-oxo-1,6-dihydropyridazin-4-yl)pyrrolidin-3-yl (4-benzamido-4-methylcyclohexyl)carbamate] |

The next lines start with the compound.

| SMILES | IC50 [1] [µM] | IC50 (human CD73) [µM] |
| --- | --- | --- |
| CS(=O)(=O)N[C@H]1CC[C@H](NC(=O)O[C@@H]2CCN(c3cnn(CCO)c(=O)c3Cl)C2)CC1 [P-0334, (R)-1-(5-chloro-1-(2-hydroxyethyl)-6-oxo-1,6-dihydropyridazin-4-yl)pyrrolidin-3-yl ((1r,4R)-4-(methylsulfonamido)cyclohexyl)carbamate] | 0.001 to 10 | 0.001 to 10 |
| C[C@H]1C[C@@H](OC(=O)NC2CCC(F)(F)CC2)CN1c1cn[nH]c(=O)c1Cl [P-0336, (3R,5S)-1-(5-chloro-6-oxo-1,6-dihydropyridazin-4-yl)-5-methylpyrrolidin-3-yl (4,4-difluorocyclohexyl)carbamate] | 0.001 to 10 | 10 to 100 |
| O=C(NC1CC(CO)(CCl)C1)O[C@@H]1CCN(c2cn[nH]c(=O)c2Cl)C1 (stereo partly drawn) [P-0338, (R)-1-(5-chloro-6-oxo-1,6-dihydropyridazin-4-yl)pyrrolidin-3-yl (3-(chloromethyl)-3-(hydroxymethyl)cyclobutyl) carbamate] | 0.001 to 10 | 0.001 to 10 |
| O=C(N[C@H]1CC[C@@H](F)CC1)O[C@@H]1CCN(c2cn[nH]c(=O)c2Cl)C1 [P-0339, (R)-1-(5-chloro-6-oxo-1,6-dihydropyridazin-4-yl)pyrrolidin-3-yl ((1s,4S)-4-fluorocyclohexyl)carbamate] | 0.001 to 10 | 0.001 to 10 |
| CC(=O)N1CC[C@H](NC(=O)O[C@@H]2CCN(c3cn[nH]c(=O)c3Cl)C2)C1 [P-0340, (R)-1-(5-chloro-6-oxo-1,6-dihydropyridazin-4-yl)pyrrolidin-3-yl ((S)-1-acetylpyrrolidin-3-yl)carbamate] | 0.001 to 10 | 0.001 to 10 |
| O=C(N[C@H]1CCN(C(=O)c2ccccc2)C1)O[C@@H]1CCN(c2cn[nH]c(=O)c2Cl)C1 [P-0342, (R)-1-(5-chloro-6-oxo-1,6-dihydropyridazin-4-yl)pyrrolidin-3-yl ((S)-1-benzoylpyrrolidin-3-yl)carbamate] | 0.001 to 10 | 10 to 100 |
| O=C(N[C@H]1CCN(C(=O)NC2CCCCC2)C1)O[C@@H]1CCN(c2cn[nH]c(=O)c2Cl)C1 [P-0343, (R)-1-(5-chloro-6-oxo-1,6-dihydropyridazin-4-yl)pyrrolidin-3-yl ((S)-1-(cyclohexylcarbamoyl)pyrrolidin-3-yl)carbamate] | 0.001 to 10 | 10 to 100 |
| Cc1ccc(C(=O)N[C@H]2CC[C@H](NC(=O)O[C@@H]3CCN(c4cn[nH]c(=O)c4Cl)C3)CC2)cc1 [P-0344, (R)-1-(5-chloro-6-oxo-1,6-dihydropyridazin-4-yl)pyrrolidin-3-yl ((1r,4R)-4-(4-methylbenzamido)cyclohexyl) carbamate] | 0.001 to 10 | 0.001 to 10 |
| COc1c(N2CC[C@@H](OC(=O)NC3CCC(F)(F)CC3)C2)cn[nH]c1=O [P-0348, (R)-1-(5-methoxy-6-oxo-1,6-dihydropyridazin-4-yl)pyrrolidin-3-yl (4,4-difluorocyclohexyl)carbamate] | 0.001 to 10 | 10 to 100 |
| CC1(C)CCCC1NC(=O)O[C@@H]1CCN(c2cn[nH]c(=O)c2Cl)C1 (stereo partly drawn) [P-0350, (R)-1-(5-chloro-6-oxo-1,6-dihydropyridazin-4-yl)pyrrolidin-3-yl (2,2-dimethylcyclopentyl)carbamate] | 0.001 to 10 | 0.001 to 10 |
| CC1(C)CC(NC(=O)O[C@@H]2CCN(c3cn[nH]c(=O)c3Cl)C2)C1 [P-0351, (R)-1-(5-chloro-6-oxo-1,6-dihydropyridazin-4-yl)pyrrolidin-3-yl (3,3-dimethylcyclobutyl)carbamate] | 0.001 to 10 | 0.001 to 10 |
| O=C(N[C@H]1CC[C@@H](Nc2ncccn2)CC1)O[C@@H]1CCN(c2cn[nH]c(=O)c2Cl)C1 [P-0352, (R)-1-(5-chloro-6-oxo-1,6-dihydropyridazin-4-yl)pyrrolidin-3-yl ((1s,4s)-4-(pyrimidin-2-ylamino)cyclohexyl)carbamate] | 0.001 to 10 | 0.001 to 10 |
| CC(=O)N1CC[C@@H](NC(=O)O[C@@H]2CCN(c3cn[nH]c(=O)c3Cl)C2)C1 [P-0353, (R)-1-(5-chloro-6-oxo-1,6-dihydropyridazin-4-yl)pyrrolidin-3-yl ((R)-1-acetylpyrrolidin-3-yl)carbamate] | 0.001 to 10 | 0.001 to 10 |
| CC(C)(O)[C@H]1CC[C@H](NC(=O)O[C@@H]2CCN(c3cn[nH]c(=O)c3Cl)C2)CC1 [P-0356, (R)-1-(5-chloro-6-oxo-1,6-dihydropyridazin-4-yl)pyrrolidin-3-yl ((1r,4R)-4-(2-hydroxypropan-2-yl)cyclohexyl)carbamate] | 0.001 to 10 | 0.001 to 10 |
| CC1(NS(C)(=O)=O)CCC(NC(=O)O[C@@H]2CCN(c3cn[nH]c(=O)c3Cl)C2)CC1 (stereo partly drawn) [P-0358, (R)-1-(5-chloro-6-oxo-1,6-dihydropyridazin-4-yl)pyrrolidin-3-yl (4-methyl-4-(methylsulfonamido)cyclohexyl)carbamate] | 0.001 to 10 | 0.001 to 10 |
| O=C(N[C@@H]1CCN(C(=O)c2ccccc2)C1)O[C@@H]1CCN(c2cn[nH]c(=O)c2Cl)C1 [P-0359, (R)-1-(5-chloro-6-oxo-1,6-dihydropyridazin-4-yl)pyrrolidin-3-yl ((R)-1-benzoylpyrrolidin-3-yl)carbamate] | 0.001 to 10 | 0.001 to 10 |
